According to patent publication US5552156A, “Liposomal and micellular stabilization of camptothecin drugs” (Ohio State University, priority 1995, dated 1996):

Columns and labels:
[1] = Overall association constant by fluorescence anisotropy titration, DMPC liposomes; assay type: physicochemical; conditions: for overall association constant K, DMPC: DMPC (electroneutral, fluid phase), PBS, 37° C.; for binding affinity for liposomes (ranking): each type of liposome; for bound drug level, DMPC: DMPC liposomes, 0.29M lipid, estimated
Procedure: (§1) While the spectral changes provide qualitative evidence that the camptothecin drugs bind the liposome membranes, fluorescence anisotropy titration, offers the most sensitive means for quantitatively assessing the extent of the binding. The fluorescence anisotropy titration was performed according to the method of Burke and Tritton, Biochemistry 24: 1768-1776 (1985).
The concentrations of free camptothecin drugs and camptothecin drugs associated with liposomes were determined at various lipid concentrations. All experiments were conducted in glass tubes pretreated with a silating agent, Surfacil, from Pearce Chemical, Rockford, Ill. The titration was conducted at camptothecin drug concentration of 1×10^-6 M in PBS at 37° C. Anisotropy values at each lipid concentration were determined within less than 30 seconds following the addition of the camptothecin drugs to the liposome suspension. The (a) values were determined for fixed drug concentration, typically 2 μM, while the lipid concentration was varied from 0 to 0.29M. By varying the lipid concentration rather than varying the drug concentration, the problem of self-association phenomenon which occurs for camptothecin drugs concentrations in excess of 10 μM is avoided. Also, the well-known phenomenon known as inner filter effect which occurs using fluorescent material at high optical densities is a is avoided.
Adsorption isotherms like those shown in FIGS. 4A and 4B were used to determine overall association constants for the camptothecin drugs. Overall association constants are defined as: […]
where [AB ] represents the concentration of the camptothecin drug bound to the vesicle membrane, [AF ] represents the concentration of free drug, and [L] represents the total lipid concentration in the liposome suspension. This equation is valid when the concentration of free lipid is approximately equal to the concentration of total lipid, that is, the concentration of free lipid is in great excess over the concentration of bound drug. Provided this concentration is satisfied, K may be determined from the inverse of the slope of a double reciprocal plot according to (Burke and Tritton, Biochemistry 24:1776, 1985). In such a plot, 1/bound fraction of the total camptothecin drug is plotted vs. 1/[lipid], with a y-intercept value of 1.
FIG. 6A is the double-reciprocal plot for the associations of CMC, camptothecin, camptothecin carboylate sodium salt and topotecan with DMPC at 37° C.
The stabilization of camptothecin drugs was determined using different lipids. Three types of lipids (and thus 3 types of membranes) were examined: fluid-phase and electroneutral L-α-dimyristoylphosphatidylcholine (DMPC); fluid-phase and negatively-charged L-α-dimyristoylphosphatidylglycerol (DMPG), and solid-phase and electroneutral L-α-distearoylphosphatidylcholine (DSPC). While DMPC and DMPG have identical chain length, the charge on their head groups differ. DMPC and DSPC have identical head groups, but DMPC has acyl chains having 14 carbons per chain, which are four carbons shorter than the DSPC, which has 18 carbons per chain. This difference of 4-carbon chain length results in DMPC being fluid-phase at 37° C. while DSPC is solid-phase. The 7 camptothecin drugs listed in Table III were combined with liposomes containing the above lipids.
FIGS. 4A and 4B show the extent of camptothecin drug binding to liposomes as a function of lipid concentration for DMPC and DMPG liposomes. DMPC liposomes were made as in Example 1, at lipid concentrations from 0 to 0.29M, using CMC, 10-hydroxycamptothecin, 10,11-methylenedioxy-camptothecin, topotecan, camptothecin, and camptothecin carboxylate sodium salt, as shown in FIG. 4B. DMPG liposomes were made as in Example 2, at lipid concentrations from 0 to 0.29M, using 9-chloro-10,11-methylenedioxycamptothecin CMC, 10,11-methylenedioxycamptothecin, camptothecin, and topotecan, 9-aminocamptothecin, as shown in FIG. 4A. […]

[2] = Steady-state fluorescence anisotropy in solvents and liposomes; assay type: physicochemical; conditions: for steady-state anisotropy (a), DMPC: DMPC liposomes, 1/a vs. 1/[lipid] plot; for steady-state anisotropy (a), DMPC / steady-state anisotropy (a), DMPG / steady-state anisotropy (a), PBS / steady-state anisotropy (a), glycerol / steady-state anisotropy (a), octanol / steady-state anisotropy (a), DSPC: 37° C.; for steady-state anisotropy (a), DMPG: DMPG liposomes; for steady-state anisotropy (a), PBS / steady-state anisotropy (a), glycerol / steady-state anisotropy (a), octanol: 1 μM drug; for limiting fluorescence anisotropy a0: extrapolated to -25° C.; for limiting fluorescence anisotropy a0 / steady-state anisotropy (a), glycerol: glycerol; for steady-state anisotropy (a), DSPC: DSPC liposomes
Procedure: Steady-state fluorescence measurements were obtained on a SLM Model 4800C. spectrofluorometer with a thermostated cuvette compartment. This instrument was interfaced with an IBM PS/2 model 55 SX computer. Excitation and emission spectra were recorded with an excitation resolution of 8 nm and an emission resolution of 4 nm. In all cases spectra were corrected for background fluorescence and scatter from unlabeled lipids or from solvents by subtraction of the spectrum of a blank. Steady-state fluorescence intensity measurements were made in the absence of polarizer. Steady-state anisotropy (a) measurements were determined with the instrument in the "T-format" for simultaneous measurement of two polarized intensities. The alignment of polarizers were checked routinely using a dilute suspension of 0.25 μm polystyrene microspheres from Polysciences, Inc, Warrington, Pa., in water; anisotropy values of >0.99 were obtained. The anisotropy was calculated from a=(Ivv -GlVH)/(Ivv +GIVH), where G-IVH /IHH and the subscripts refer to vertical and horizontal orientations of the excitation and emission polarizers, respectively.
Anisotropy measurements for camptothecin, camptothecin carboxylate sodium salt, and 10,11-methylenedioxycamptothecin were conducted using exciting light of 370 nm and 420 nm long wave pass filters on each emission channel in order to isolate the fluorescence signal from background scatter and signal. For topotecan a 400 nm excitation wavelength and a 500 nm emission filter were used and for 9-aminocamptothecin a 375 nm excitation and a wavelength 420 nm emission filter were used. For AMC and CMC, a 370 nm excitation wavelength and a 400 nm emission filter were used. For 10-hydroxycamptothecin 375 nm excitation wavelength 500 nm emission filter was used. Emission filters were obtained from Oriel Corp. Stamford, Conn. The combination of exciting light and emission filters allows one to adequately separate the fluorescence from the background signal. The contribution of background fluorescence, together with scattered light, was typically less than 1% of the total intensity. Since the lactone ring of the camptothecin drug undergoes hydrolysis in aqueous medium, all measurements were completed within the shortest possible time, less than 1 minute after mixing the drug stock solution with PBS or the liposomes. In each case, analysis was initiated immediately after mixing the drug stock solution with PBS or with the liposomes. All measurements were performed at 37° C. unless otherwise noted.
as §1
A steady-state fluorescence anisotropy (a) measurement is related to the rotational rate of the fluorescent molecule through the Perrin Equation: […]
where a0 is the limiting fluorescence anisotropy value, that is, the anisotropy value in the absence of depolarizing rotations, T is the excited-state lifetime, and .phi. is the rotational correlative time of the fluorophore. According to Equation 1, changes in either the T or .phi. values of a fluorescent compound can modulate its steady-state anisotropy.
The limiting fluorescence anisotropy (a0) values were also measured. The maximum values of (a) were obtained by dissolving the camptothecin drugs in the viscous solvent glycerol and cooling the samples to low temperatures. Steady-stated anisotropy (a) values were determined for samples containing 1 μM drug at 37° C.
Where the solvent viscosity is high and temperature is low, depolarizing rotations are at a minimum. By extrapolating these (a) values to -25° C., the limiting anisotropy values (a0) for the camptothecin drugs, were determined. […]

CCC1(O)C(=O)OCc2c1cc1n(c2=O)Cc2cc3cc(O)ccc3nc2-1 (centres unmarked) [10-hydroxycamptothecin]
overall association constant K, DMPC [1]: 75 M⁻¹ | steady-state anisotropy (a), DMPC [2]: 0.191 | steady-state anisotropy (a), DMPG [2]: 0.201 | steady-state anisotropy (a), PBS [2]: 0.021 | limiting fluorescence anisotropy a0 [2]: 0.372 | steady-state anisotropy (a), glycerol [2]: 0.331 | steady-state anisotropy (a), octanol [2]: 0.127

CCC1(O)C(=O)OCc2c1cc1n(c2=O)Cc2cc3cc4c(cc3nc2-1)OCO4 (centres unmarked) [10,11-methylenedioxycamptothecin]
binding affinity for liposomes (ranking) [1]: intermediate binding affinities | steady-state anisotropy (a), DMPC [2]: 0.168 | steady-state anisotropy (a), DMPG [2]: 0.206 | steady-state anisotropy (a), PBS [2]: 0.021 | limiting fluorescence anisotropy a0 [2]: 0.374 | steady-state anisotropy (a), glycerol [2]: 0.357 | steady-state anisotropy (a), octanol [2]: 0.089

CCC1(O)C(=O)OCc2c1cc1n(c2=O)Cc2cc3c(Cl)c4c(cc3nc2-1)OCO4 (centres unmarked) [9-chloro-10,11-methylenedioxycamptothecin]
overall association constant K, DMPC [1]: 400 M⁻¹ | bound drug level, DMPC [1]: 99% | binding affinity for liposomes (ranking) [1]: highest binding affinity for each type of liposome | steady-state anisotropy (a), DMPC [2]: 0.202 | steady-state anisotropy (a), DMPG [2]: 0.207 | steady-state anisotropy (a), PBS [2]: 0.025 | limiting fluorescence anisotropy a0 [2]: 0.367 | steady-state anisotropy (a), glycerol [2]: 0.363 | steady-state anisotropy (a), octanol [2]: 0.098

CC[C@@]1(O)C(=O)OCc2c1cc1n(c2=O)Cc2cc3c(CN(C)C)c(O)ccc3nc2-1 [topotecan]
reduced propensity to bind electroneutral liposome membranes relative to CMC ([1]; DMPC): 40 -fold | overall association constant K, DMPC [1]: 10 M⁻¹ | bound drug level, DMPC [1]: 74% | binding affinity for liposomes (ranking) [1]: lowest binding affinity for liposomes | steady-state anisotropy (a), DMPC [2]: 0.125 | steady-state anisotropy (a), DMPG [2]: 0.170 | steady-state anisotropy (a), DSPC [2]: 0.059 | steady-state anisotropy (a), PBS [2]: 0.008 | limiting fluorescence anisotropy a0 [2]: 0.367 | steady-state anisotropy (a), glycerol [2]: 0.320 | steady-state anisotropy (a), octanol [2]: 0.071

CC[C@@]1(O)C(=O)OCc2c1cc1n(c2=O)Cc2cc3ccccc3nc2-1 [camptothecin]
bound drug level, DMPC [1]: 97% | binding affinity for liposomes (ranking) [1]: intermediate binding affinities | steady-state anisotropy (a), DMPC [2]: 0.127 | steady-state anisotropy (a), DMPG [2]: 0.122 | steady-state anisotropy (a), DSPC [2]: 0.087 | steady-state anisotropy (a), PBS [2]: 0.007 | enhancement in steady-state anisotropy (a) value ([2]; bound to DMPG liposomes): 17 -fold | limiting fluorescence anisotropy a0 [2]: 0.383 | steady-state anisotropy (a), glycerol [2]: 0.334 | steady-state anisotropy (a), octanol [2]: 0.051
